“Also recorded” adds a separate entry of the source.
Experiments:
Format in all cases: physicochemical
Thermal stability (XRPD) = details: Heating 100° C., 30 minutes
Procedure: (§1) A sample is powdered in a mortar and pestle and applied directly on a silicon plate holder. The X-ray powder diffraction pattern was measured with Philips X'Pert PRO X-ray powder diffractometer, equipped with Cu irradiation source=1.54184 Å (Ångström), X'Celerator (2.022° 2θ) detector. Scanning parameters: angle range: 3-40 deg., step size 0.0167, time per step 37 s, continuous scan.
A sample of Rucaparib tosylate form X was subjected to heating up to 100° C. for 30 minutes.

[1] = Grinding experiments (XRPD); details: for XRPD analysis results: 3 minutes
Procedure: as §1
Samples of Rucaparib tosylate form X were subjected to strong grinding, and to solvent drop grinding in water, ethanol (96%) and 2-propanol. Grinding was carried out on the samples alone, or in the presence of ethanol, water and 2-propanol. In these experiments, about 20-30 mg of the sample were placed in a mortar and ground with a pestle for 3 minutes. The solvent, when used, as added to the crystalline material before grinding, in a volume of 10 microlitres.

[2] = Stability to compression (XRPD); details: for XRPD analysis results: after 1-5 minutes
Procedure: as §1
Samples of Rucaparib tosylate form X were subjected to pressures of 1000 kg and 2000 kg. XRPD analysis was performed on the samples after 1-5 minutes.

[3] = Storage stability at different relative humidities (XRPD); details: for XRPD analysis results: 7 days
Procedure: as §1
Samples of Rucaparib tosylate form X (about 200 mg each) were subjected to conditions of different relative humidities at ambient temperature. XRPD analysis was performed on the samples after 7 days.
A sample of Rucaparib tosylate form X was subjected to 100% relative humidity at 25° C.

[4] = Exposure to solvent vapour (XRPD); details: 25° C., 7 days
Procedure: as §1
Samples of Rucaparib tosylate form X (20-40 mg) were put in small vials and exposed to solvent vapours (2.5 ml each of ethanol, 96%, water and 2-propanol) at 25° C.

Rucaparib Tosylate [Rucaparib tosylate form X]
Result (XRPD analysis) (Thermal stability (XRPD)): no change in the starting material; also recorded: Form X | XRPD analysis results ([1]; Solvent-drop grinding (2-propanol), 10 microlitres): Form X | XRPD analysis results ([1]; Solvent-drop grinding (ethanol), 10 microlitres): Form X | XRPD analysis results ([1]; Solvent-drop grinding (water), 10 microlitres): Form X | XRPD analysis results ([1]; Strong grinding): Form X | XRPD analysis after the grinding experiment ([1]; all grinding conditions: alone or with ethanol, water, 2-propanol): no change in the starting material | XRPD analysis results ([2]; Pressure 1000 kg): No change | XRPD analysis results ([2]; Pressure 2000 kg): No change | Stability under high pressure conditions ([2]; pressures of 1000 kg and 2000 kg): stable | XRPD analysis results ([3]; 20% relative humidity, ambient temperature, triplicate): Form X | Stability after exposure to high and low relative humidity ([3]; 20-100% relative humidity, ambient temperature, at least 7 days): stable | XRPD analysis results ([3]; 40% relative humidity, ambient temperature, triplicate): Form X | XRPD analysis results ([3]; 60% relative humidity, ambient temperature, triplicate): Form X | XRPD analysis results ([3]; 80% relative humidity, ambient temperature, triplicate): Form X | XRPD analysis, polymorphic change ([3]; 100% relative humidity, 25° C., 30 days, triplicate): no polymorphic change | XRPD analysis results ([3]; 100% relative humidity, ambient temperature, triplicate): Form X | XRPD analysis results ([4]; 2-propanol vapour): Form X | XRPD analysis results ([4]; Ethanol, 96% vapour): Form X | XRPD analysis results ([4]; Water vapour): Form X
